The values below come from PubChem BioAssay (NCI).

Common to all, as to assay: NCI tumour cell line growth inhibition, 48 h
Assay [1] has as its system NCI-H23 lung.
The test system of assay [2] is SF-268 CNS.
Assay [3] concerns MALME-3M melanoma.
The subject of assay [4] is OVCAR-3 ovarian.
The subject of assay [5] is NCI-H460 lung.
The test system of assay [6] is A549 NSCLC.
Assay [7] has as its system 786-0 renal.
Assay [8] deals with OVCAR-5 ovarian.
The test system of assay [9] is NCI-H226 lung.
In assay [10] the test system is RXF 393 renal.

Molecules are shown by their SMILES.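 Exposure lasted 48 hours, with cells grown in 96-well plates and compounds tested at five concentrations. GI50: concentration for 50% inhibition of growth. TGI marks complete inhibition of growth.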 A value given as a limit tells only on which side of the number the result lay.

Take `CC[O-].CC[O-].O=C1c2ccccc2C(=O)c2c(O)ccc([O-])c21.O=C1c2ccccc2C(=O)c2c(O)ccc([O-])c21.[Ti+4]`: the TGI in [1], in assay [2], in assay [3], in [4], in assay [5] and in assay [6] was above 100 µM in each case. For the same compound, the TGI in [7] is above 100 µM; in assay [8], above 100 µM; in [9] it was above 100 µM; in assay [10], 90.4 µM. Moreover, the GI50 in [9] was above 100 µM.
Regarding `c1ccc(C2=NNC3c4ccccc4-c4ccccc4N3C2)cc1` (stereo not given), the TGI is 67.8 µM in [1]; above 100 µM in [2]; 83.1 µM in assay [3]; above 100 µM in assay [4]; 53.3 µM in assay [5]; above 100 µM in assay [6]. For the same compound, the TGI in [7] is above 100 µM; in [8], above 100 µM; in assay [9], 71.7 µM; in [10], above 100 µM.
On to `O=C(Nc1ccc(Cl)cc1)c1cc(-c2ccc(F)cc2)c2sc(=O)[nH]c2n1`, for which the GI50 in [1] is 1.19 µM; in assay [2], 2590 nM; in [3], 1.7 µM; in [4], 944 nM; in [5], 1.73 µM; in assay [6] it was 2.45 µM. For the same compound, the GI50 was 1350 nM in assay [7], 2.34 µM in [8], 1.11 µM in assay [9] and 1700 nM in assay [10]. Besides, the TGI in assay [1] was 5.79 µM; in assay [2], 17.2 µM; in [3] it was 6.8 µM; in assay [4], 11.4 µM; in assay [5] it was 4.29 µM; in assay [6], 10.1 µM. The TGI in assay [7] turned out to be 2.85 µM; in [8] it was 7.9 µM; in [9], 3.93 µM; in [10] it was 3.99 µM.
For `CC(C)(C)OC(=O)Cc1ccc2c(ccn2Cc2ccccc2)c1`, the TGI in assay [1], in assay [2], in assay [3], in [4], in assay [5] and in [6] was above 100 µM in each case. Further, the TGI in assay [7], in assay [8], in assay [9] and in assay [10] was above 100 µM each time.
On to `CCN(CC)c1sc(N(CC)CC)c2c1SSSSS2`, for which the GI50 was 0.255 µM in [1]; 1960 nM in assay [2]; 1.59 µM in assay [3]; 1440 nM in [4]; 2.48 µM in [5]; 1.84 µM in [6]. For the same compound, the GI50 in [7] is 1200 nM; in [8], 1.52 µM; in assay [9] it was 1.75 µM; in assay [10] it was 1590 nM. Further, the TGI in [1] came to 0.674 µM; in assay [2], 4.53 µM; in assay [3], 3.45 µM; in assay [4], 3.39 µM; in assay [5] it was 6.02 µM; in assay [6] it was 3.64 µM. Besides, the figures for the TGI in assay [7], in [8] and in assay [9] were 3.09 µM, 3.2 µM and 3.46 µM, respectively.
Turning to `Cc1cc(SCC(=O)c2ccccc2)nc2ccccc12`, the TGI in [1], in [2], in [3], in assay [4], in assay [5] and in [6] was above 100 µM in each case. Also, the TGI in assay [7], in assay [8], in assay [9] and in assay [10] was above 100 µM each time.
Consider `COc1ccc(C(=O)COc2cccc(/C=C3\COc4ccc5ccccc5c4C3=O)c2)cc1`, for which the GI50 in assay [1] was 5.17 µM; in [2], 7830 nM; in assay [3], 10.2 µM; in [4] it was 3120 nM; in assay [5], 6.44 µM; in [6], above 100 µM. In addition, the GI50 is 57400 nM in [7], 12.9 µM in [8], 15.4 µM in assay [9] and 9800 nM in assay [10]. The TGI in assay [1] was above 100 µM; in assay [2] it was above 100 µM; in [3] it was above 100 µM; in assay [4], 11.5 µM; in [5], above 100 µM; in assay [6] it was above 100 µM. Besides, the TGI in [7], in assay [8], in [9] and in assay [10] was above 100 µM throughout.
Take `CC(C)=CCC/C(=C/CC/C(C)=C/CCc1ccoc1)C(=O)O`: the TGI in assay [1], in assay [2], in assay [3], in assay [4], in assay [5] and in assay [6] was above 100 µM in each case. In addition, the TGI in assay [7], in assay [8], in assay [9] and in assay [10] was above 100 µM in each case.
With `COc1cc(NC(=O)c2cc(O)c(CC=C(C)C)c(O)c2)cc2c1O[C@]1(C)CC[C@@H](O)C(C)(C)[C@H]1C2`, the GI50 was 3.99 µM in assay [1]; 4650 nM in [2]; 6.24 µM in assay [3]; 5930 nM in [4]; 3.65 µM in [5]; 6.87 µM in assay [6]. The GI50 in assay [7] was 567 nM; in [8], 12 µM; in assay [9], 11.2 µM; in assay [10] it was 434 nM. The TGI in assay [1] is 25.7 µM; in [2], 72.6 µM; in assay [3], 24.3 µM; in assay [4], 83.5 µM; in [5] it was 19.2 µM; in assay [6], 23.2 µM. Besides, the TGI in assay [7] was 7.24 µM; in [8], 66.7 µM; in assay [9], 31.7 µM; in assay [10], 2.34 µM.
Turning to `O=C(CCl)Nc1ccc(Cl)cc1`, the GI50 in assay [1] is 3.29 µM; in [2] it was 2720 nM; in assay [3], 3.33 µM; in assay [4], 1880 nM; in [5], 3.86 µM; in assay [6] it was 11.2 µM. In addition, the GI50 in assay [7] was 4640 nM; in assay [8], 3.57 µM; in assay [9], 4.17 µM; in assay [10], 2140 nM. The TGI amounted to 14.3 µM in [1]; 7.66 µM in [2]; 13.2 µM in [3]; 3.62 µM in assay [4]; 16.5 µM in assay [5]; 26.9 µM in assay [6]. For the same compound, the TGI in assay [7] turned out to be 19.5 µM; in assay [8] it was 12.9 µM; in assay [9], 15.7 µM; in [10], 4.43 µM.
